# pEC50, pKi: −log10 of the molar value. Values joined by “and” are separate entries in the source; they are usually repeats but may differ in a detail not shown here. Equal values may be shown once. Read-outs that look alike come from different tables or passages of the source.
# Assays:
# [1] = test system: HIV-1; experiment: Anti-retroviral activity in CEM cells chronically infected with HIV-1 (soluble formazan assay); assay type: cell-based; details: Human immunodeficiency virus 1, CCRF-CEM, 50% inhibition of viral activity
# Experimental: The concentration of compound that inhibits 50% of viral activity (EC50 ; determined as described in Weislow et al. (1989), supra) and the inhibition constant (Ki, as defined in Example 7) for the compound were determined.
# [2] = test system: CEM cells; experiment: Toxicity of DD-5; assay type: cell-based; details: even at doses as high as 10^-4 M
# [3] = test system: p24 synthesis; experiment: Suppression of p24 synthesis; assay type: cell-based, HIV-1; details: Human immunodeficiency virus 1; read-out: concentrations suppressing p24 synthesis
# [4] = molecular target: T1, HIV-1 protease (wild-type, WT) (Human immunodeficiency virus type 1 group M subtype B, UniProt P04585); experiment: Inhibition of purified wild-type HIV-1 protease (fluorogenic substrate cleavage), Ki and % inhibition; assay type: biochemical; details: for pKi: read-out: Ki
# T1 construct: purified HIV-1 protease (wild-type, WT)
# Experimental: The inhibition constants (Ki) for the compounds of the above examples were determined using purified HIV-1 protease (wild-type, WT) (Tables I, II, IV and V) and R8Q and V82I mutant HIV-1 proteases (Table III). Ki is an inhibition constant of a given compound as derived by enzyme kinetics. A low Ki represents a high affinity of the compound for the enzyme, i.e., tight binding or low dissociation. Inhibition of the cleavage was assayed using a fluorogenic substrate available from Molecular Probes, Inc., Eugene, Oreg., and described in Kageyama et al., Antimicrob. Agents. Chemother., 37, 272 (1993), and a fluorogenic substrate available from Bachem California, Torrance, Calif., and described in Kageyama et al. (1993), supra. The inhibitory potencies of these compounds are set forth in Tables I-V. Percent inhibition is the percentage inhibition of an enzyme's activity by a given compound at a given concentration.
# [5] = Fluorescence of compounds; assay type: physicochemical
# From the text: The determination of which compounds of the present invention fluoresce can be done in accordance with methods well-known to those of ordinary skill in the art. Such fluorescence can be used to assay for antiviral activity of newly discovered compounds. For example, a fluorescent compound of the present invention can be used as a standard in an antiviral activity assay. The fluorescence of the compound can be measured in the absence and presence of a viral enzyme, such as a retroviral enzyme, in particular a retroviral protease, e.g., an HIV protease, in vitro. A test compound can then be added to the test system comprising the fluorescent compound and the enzyme. The decreased fluorescence of the fluorescent compound of the present invention in the absence and presence of the test compound can be measured and quantitated as a measure of the antiviral activity of the test compound.
# [6] = test system: viral activity; details: comparison compounds in clinical trials; cited from earlier work
SMILES,pEC50 [1],pKi ([4]; Table IV),pKi [4],fluorescence [5],pEC50 [6],further results
O=C(Nc1ccccc1C(=O)N[C@@H](Cc1ccccc1)C[C@H](O)[C@H](Cc1ccccc1)NC(=O)c1ccccc1NC(=O)OCc1ccccn1)OCc1ccccn1 [Compound 36],8.62,–,–,–,–,toxicity [2]: no toxicity; minimal effective concentration [3]: ≥ 0.01 µM
O=C(Nc1ccccc1C(=O)N[C@@H](Cc1ccccc1)[C@H](O)[C@H](O)[C@H](Cc1ccccc1)NC(=O)c1ccccc1NC(=O)OCc1ccccc1)OCc1ccccc1 [Compound 27],–,8.62,8.62,good fluorescence,–,relative potency vs compound 26 ([4]; more potent than compound 26): 20 times
CC(C)(C)NC(=O)[C@@H]1C[C@@H]2CCCC[C@@H]2CN1C[C@@H](O)[C@H](Cc1ccccc1)NC(=O)[C@H](CC(N)=O)NC(=O)c1ccc2ccccc2n1 [Ro31-8959],–,–,–,–,8.00,–
O=C(Nc1ccccc1C(=O)N[C@@H](Cc1ccccc1)[C@H](O)[C@H](O)[C@H](Cc1ccccc1)NC(=O)c1ccccc1NC(=O)OCc1ccccn1)OCc1ccccn1 [Compound 34],8.49,10.22,10.21 and 10.19,good fluorescence,–,–
CSC[C@H](NC(=O)COc1cccc2cnccc12)C(=O)N[C@@H](Cc1ccccc1)[C@H](O)C(=O)N1CSC[C@H]1C(=O)NC(C)(C)C [KNI272],–,–,–,–,8.38,–

# — patent US6066656A, “2,5-diamino-3,4-disubstituted-1,6-diphenylhexane isosteres comprising benzamide, sulfonamide and anthranilamide subunits and methods of using same” (The United States of America as represented by the …, priority 1998, dated 2000)
